# Where two headings read alike, the source gives them in different places.
# Experiments:
# [1] = system: hemodynamics of anesthetised cats; experiment: effects on hemodynamics of anesthetised cats (Table 1); format: in vivo, cat
# Procedure: The experiments were performed on male and female (2.9-3.8 kg) anaesthetized cats (urethane 200 mg/kg and chloralose 50 mg/kg, both i.p.).
# The chest was opened in the experimental animals, which were artificially respirated, and blood pressure in the carotid artery as well as general aorta blood flow were measured on physiograph DMP-46 "Narco Bio-Systems" USA.
# [2] = system: CaCl2-induced lethal arrhythmias in mice; experiment: CaCl2-induced lethal arrhythmias in mice (Table 4); format: in vivo, albino mice; conditions: for Survive (number of animals): 10 observations
# Procedure: This experiment was performed on male and female conscious albino mice (19-26 g) administering to their tail vein a 2% (by weight) calcium chloride solution, animal protection against lethal arrhythmia being used as an effect criterion (Table 4).
# [3] = system: CaCl2-induced lethal arrhythmias in rats; experiment: CaCl2-induced lethal arrhythmias in rats (Table 5); format: in vivo, albino rats; conditions: for Survive (number of animals) / Survive (percent): 5 observations
# Procedure: These experiments were performed on male and female albino rats (190 to 230 g) anesthetized with urethane ([…], i.p.), and after 2% calcium chloride solution administration to animal foot vein ECG was registered in II standard lead.
# [4] = system: isolated rabbit ear blood vessel; experiment: adrenaline-induced isolated rabbit ear blood vessel spasms (Table 2); conditions: for Perfusion pressure, final data, max / Perfusion pressure, final data, min: after adrenaline 3.10^-7 M addition
# rabbit ear blood vessel = experiment: adrenaline-induced rabbit ear blood vessel spasm in the presence of L-nitro-arginine (Table 3); conditions: adrenaline 3.10^-7 M and L-NO2-Arg 10 mg/l
# in vivo = conditions: mouse, in vivo
# Procedure: (§1) Acute toxicity was studied on male and female albino mice (19-26 g), 10 animals in a group. The substances were administered as a 10% solution orally or i.v. (with 0.004 ml/sec rate).
# albino mice = experiment: in vivo; conditions: in words
# Procedure: as §1
# [5] = system: ischemia- and reperfusion-induced heart rhythm disturbances in rats; experiment: ischemia- and reperfusion-induced heart rhythm disturbances in rats, therapeutic regimen (Table 6); format: in vivo, Wistar rats; conditions: for Lethality (number of animals from total numb) / ST rise during occlusion / Ventricular fibrillation (number of animals from total numb) / Ventricular tachycardy (number of animals from total numb): 50 mg/kg total (25 injection + 25 infusion); for efficacy against ischaemia-reperfusion-induced damage and rhythm disturbances: therapeutic regimen, in words
# Procedure: (§2) The experiments were carried out on Wistar rats (260-330 g). During phenobarbital anesthesia (50 mg/kg, i.p.) and artificial respiration their chest was opened and the left coronary artery was ligated with 6.0 Silk Ethicon thread which was pulled out through plastic pipe. Occlusion was made by pressing the plastic pipe to the heart surface, and ischaemia stage was controlled by ECG, fixing ischaemia-induced changes in ECG. Solutions of the substances or saline were i.v. injected in two regimens:
# 2) therapeutically--1.5 min after occlusion by administering 25 mg/kg in injection and 25 mg/kg infusively. Infusion was stopped 2 min after reperfusion.
# [6] = system: ischemia and reperfusion-induced heart rhythm disturbances in rats; experiment: ischemia and reperfusion-induced heart rhythm disturbances in rats, prophylactic regimen (Table 7); format: in vivo, Wistar rats; conditions: for Lethality (number of animals from total numb) / ST rise during occlusion / Ventricular fibrillation (number of animals from total numb) / Ventricular tachycardy (number of animals from total numb): 50 mg/kg (proph.), i.v. 30 min before occlusion; for efficacy against ischaemia-reperfusion-induced damage and rhythm disturbances: prophylactic regimen, in words
# Procedure: as §2
# 1) prophylactically--30 min before occlusion by administration of 50 mg/kg,
# [7] = cited from earlier work; for toxic effects: W. Linneweh, 1929
# [8] = literature statements; cited from earlier work
# carnitine biosynthesis = conditions: cited from earlier work; for mechanism of action: literature
structure (smiles),measurement,setting,value
"CC(=O)OCC[N+](C)(C)C [Ach, acetyl choline]",Blood pressure changes,[1]; 0.001 mg/kg i.v.,-35%
same,Heart rate changes,[1]; 0.001 mg/kg i.v.,-20%
CCOC(=O)Nc1ccc2c(c1)N(C(=O)CCN1CCOCC1)c1ccccc1S2 [Etmozine],Protection against the control,[2]; 5 mg/kg p.o.,20%
same,Survive (number of animals),[2]; 5 mg/kg p.o.,3
same,Protection against the control,[2]; 10 mg/kg p.o.,40%
same,Survive (number of animals),[2]; 10 mg/kg p.o.,5
same,Protection against the control,[2]; 30 mg/kg p.o.,40%
same,Survive (number of animals),[2]; 30 mg/kg p.o.,5
same,Protection against the control,[3]; 3 mg/kg p.o.,20%
same,Survive (number of animals),[3]; 3 mg/kg p.o.,1
same,Survive (percent),[3]; 3 mg/kg p.o.,10%
same,Protection against the control,[3]; 10 mg/kg p.o.,46%
same,Survive (number of animals),[3]; 10 mg/kg p.o.,2
same,Survive (percent),[3]; 10 mg/kg p.o.,40%
"C[N+](C)(C)CCCC(=O)[O-] [GBB, γ-butyrobetaine]",Blood flow rate changes,[1]; 5.0 mg/kg i.v.,6%
same,Blood flow rate changes,[1]; 10.0 mg/kg i.v.,12%
same,"Perfusion pressure, final data, max",[4]; 0.3 μM,124 mm Hg
same,"Perfusion pressure, final data, min",[4]; 0.3 μM,76 mm Hg
same,"Perfusion pressure, final data, max",[4]; 1.0 μM,125 mm Hg
same,"Perfusion pressure, final data, min",[4]; 1.0 μM,80 mm Hg
same,"Perfusion pressure, final data, max",[4]; 2.0 μM,125 mm Hg
same,"Perfusion pressure, final data, min",[4]; 2.0 μM,78 mm Hg
same,"potency on adrenaline-induced vessel spasms relative to 3-(2,2,2-trimethylhydrazinium)propionate",[4]; isolated rabbit ear,2-3 times
same,"Perfusion pressure, final data, max",rabbit ear blood vessel; 0.3 μM,168 mm Hg
same,"Perfusion pressure, final data, min",rabbit ear blood vessel; 0.3 μM,105 mm Hg
same,"Perfusion pressure, final data, max",rabbit ear blood vessel; 1.0 μM,165 mm Hg
same,"Perfusion pressure, final data, min",rabbit ear blood vessel; 1.0 μM,100 mm Hg
same,"Perfusion pressure, final data, max",rabbit ear blood vessel; 2.0 μM,163 mm Hg
same,"Perfusion pressure, final data, min",rabbit ear blood vessel; 2.0 μM,100 mm Hg
same,Protection against the control,[2]; 8 mg/kg p.o.,10%
same,Survive (number of animals),[2]; 8 mg/kg p.o.,2
same,Protection against the control,[2]; 20 mg/kg p.o.,0%
same,Survive (number of animals),[2]; 20 mg/kg p.o.,1
same,Protection against the control,[2]; 30 mg/kg p.o.,20%
same,Survive (number of animals),[2]; 30 mg/kg p.o.,3
same,Protection against the control,[2]; 50 mg/kg p.o.,40%
same,Survive (number of animals),[2]; 50 mg/kg p.o.,5
same,Protection against the control,[2]; 100 mg/kg p.o.,30%
same,Survive (number of animals),[2]; 100 mg/kg p.o.,4
same,protection from lethal arrhythmia (cases),[2]; 50 and 100 mg/kg of γ-butyrobetaine,30-40%
same,Protection against the control,[3]; 10 mg/kg p.o.,20%
same,Survive (number of animals),[3]; 10 mg/kg p.o.,1
same,Survive (percent),[3]; 10 mg/kg p.o.,20%
same,Protection against the control,[3]; 30 mg/kg p.o.,32%
same,Survive (number of animals),[3]; 30 mg/kg p.o.,1
same,Survive (percent),[3]; 30 mg/kg p.o.,20%
same,LD50,in vivo; iv,1860 mg/kg
same,LD50,in vivo; po,> 4500 mg/kg
same,acute toxicity,albino mice,practically nontoxic agent
same,Lethality (number of animals from total numb),[5],1/10
same,ST rise during occlusion,[5],0.23 ± 0.05 mV
same,Ventricular fibrillation (number of animals from total numb),[5],4/10
same,Ventricular tachycardy (number of animals from total numb),[5],7/10
same,efficacy against ischaemia-reperfusion-induced damage and rhythm disturbances,[5],effectively protects myocardium from ischaemia-reperfusion-induced myocardium damages and ventricular fibrillations which are partially resumed after infusion termination
same,Lethality (number of animals from total numb),[6],3/8
same,ST rise during occlusion,[6],0.36 mV
same,Ventricular fibrillation (number of animals from total numb),[6],6/8
same,Ventricular tachycardy (number of animals from total numb),[6],8/8
same,efficacy against ischaemia-reperfusion-induced damage and rhythm disturbances,[6],ineffective
same,toxic effects,[7]; listed as γ-Butyrobetaine,"accelerates respiration, causes salivation and lacrimation, pupil dilation, vasoconstriction and heart stop in diastole"
same,toxic effects,[7]; listed as γ-butyrobetaine,heart stop in diastole
same,LD50,[7]; s.c.,> 7000 mg/kg
same,pharmacological action,[8],pharmacologically inert substance
same,level of carnitine biosynthesis in the organism,carnitine biosynthesis; background statement,increases the level of carnitine biosynthesis in the organism
"C[N+](C)(C)NCCC(=O)[O-] [M, 3-(2,2,2-Trimethylhydrazinium)propionate]",Blood flow rate changes,[1]; 5.0 mg/kg i.v.,+5%
same,Blood flow rate changes,[1]; 10.0 mg/kg i.v.,+8%
same,"Perfusion pressure, final data, max",[4]; 0.3 μM,125 mm Hg
same,"Perfusion pressure, final data, min",[4]; 0.3 μM,80 mm Hg
same,"Perfusion pressure, final data, max",[4]; 1.0 μM,123 mm Hg
same,"Perfusion pressure, final data, min",[4]; 1.0 μM,77 mm Hg
same,"Perfusion pressure, final data, max",[4]; 2.0 μM,126 mm Hg
same,"Perfusion pressure, final data, min",[4]; 2.0 μM,80 mm Hg
same,"Perfusion pressure, final data, max",rabbit ear blood vessel; 0.3 μM,165 mm Hg
same,"Perfusion pressure, final data, min",rabbit ear blood vessel; 0.3 μM,102 mm Hg
same,"Perfusion pressure, final data, max",rabbit ear blood vessel; 1.0 μM,163 mm Hg
same,"Perfusion pressure, final data, min",rabbit ear blood vessel; 1.0 μM,100 mm Hg
same,"Perfusion pressure, final data, max",rabbit ear blood vessel; 2.0 μM,165 mm Hg
same,"Perfusion pressure, final data, min",rabbit ear blood vessel; 2.0 μM,100 mm Hg
same,Protection against the control,[2]; 8 mg/kg p.o.,10%
same,Survive (number of animals),[2]; 8 mg/kg p.o.,2
same,Protection against the control,[2]; 20 mg/kg p.o.,20%
same,Survive (number of animals),[2]; 20 mg/kg p.o.,3
same,Protection against the control,[2]; 30 mg/kg p.o.,30%
same,Survive (number of animals),[2]; 30 mg/kg p.o.,4
same,Protection against the control,[2]; 50 mg/kg p.o.,30%
same,Survive (number of animals),[2]; 50 mg/kg p.o.,4
same,Protection against the control,[2]; 100 mg/kg p.o.,40%
same,Survive (number of animals),[2]; 100 mg/kg p.o.,5
same,Protection against the control,[3]; 10 mg/kg p.o.,15%
same,Survive (number of animals),[3]; 10 mg/kg p.o.,1
same,Survive (percent),[3]; 10 mg/kg p.o.,20%
same,Protection against the control,[3]; 20 mg/kg p.o.,23%
same,Survive (number of animals),[3]; 20 mg/kg p.o.,1
same,Survive (percent),[3]; 20 mg/kg p.o.,20%
same,Protection against the control,[3]; 30 mg/kg p.o.,25%
same,Survive (number of animals),[3]; 30 mg/kg p.o.,1
same,Survive (percent),[3]; 30 mg/kg p.o.,20%
same,Lethality (number of animals from total numb),[5],3/10
same,ST rise during occlusion,[5],0.4 ± 0.1 mV
same,Ventricular fibrillation (number of animals from total numb),[5],8/10
same,Ventricular tachycardy (number of animals from total numb),[5],10/10
same,efficacy against ischaemia-reperfusion-induced damage and rhythm disturbances,[5],relatively low
same,Lethality (number of animals from total numb),[6],2/8
same,ST rise during occlusion,[6],0.31 mV
same,Ventricular fibrillation (number of animals from total numb),[6],5/8
same,Ventricular tachycardy (number of animals from total numb),[6],7/8
same,efficacy against ischaemia-reperfusion-induced damage and rhythm disturbances,[6],"markedly better in the case of prophylaxis, i.e., 30 min. before occlusion when it protects myocardium from ischemia increase during occlusion"
same,mechanism of action,carnitine biosynthesis,limitation of carnitine biosynthesis rate and the related long-chain fatty acid Transport limitation through mitochondria membranes
same,mechanism of action,"carnitine biosynthesis; listed as 3-(2,2,2-trimethylhydrazinium)-propionate (THP)",γ-butyrobetaine hydroxylase inhibitor
C=C[C@H]1C[N@@]2CC[C@H]1C[C@@H]2[C@@H](O)c1ccnc2ccc(OC)cc12 [Quinidine],Protection against the control,[2]; 10 mg/kg p.o.,10%
same,Survive (number of animals),[2]; 10 mg/kg p.o.,2
same,Protection against the control,[2]; 30 mg/kg p.o.,30%
same,Survive (number of animals),[2]; 30 mg/kg p.o.,4
same,Protection against the control,[2]; 50 mg/kg p.o.,50%
same,Survive (number of animals),[2]; 50 mg/kg p.o.,6
same,Protection against the control,[3]; 3 mg/kg p.o.,25%
same,Survive (number of animals),[3]; 3 mg/kg p.o.,1
same,Survive (percent),[3]; 3 mg/kg p.o.,20%
same,Protection against the control,[3]; 10 mg/kg p.o.,46%
same,Survive (number of animals),[3]; 10 mg/kg p.o.,2
same,Survive (percent),[3]; 10 mg/kg p.o.,40%
COC(=O)CCC[N+](C)(C)C [methyl ester],pharmacological action,[8],possesses cholinergic properties

# Source: patent US5859056A, “Pharmaceutical composition for treating cardiovascular diseases containing 3-(2,2,2-trimethylhydrazinium)propionate and γ-butyrobetaine” (priority 1995, dated 1999)
